This is an account of results in patent publication US9725752B2, “Resonator and process for performing biological assay” (THE UNITED STATES OF AMERICA, AS REPRESENTED BY THE …, priority 2015, dated 2017).

Common to all, as to format: cell-based
Experiment [1] relates to Escherichia coli (E. coli) cells. The experiment can be described thus: Optical microscope images of cell density on the crystal.
For experiment [2] the test system is unchanged. Description: Plating of cells collected from the crystal for enumeration of colony-forming units (CFUs). Conditions: LB-agar plates, growth at least 24 hours; for number of CFUs relative to a parallel sample not exposed to antibiotic: cells collected from crystal. An excerpt:
To confirm the action of the antibiotic on E. coli viability, cells were collected from the surface of the crystal and plated after serial dilution onto LB-agar plates for enumeration of colony-forming units (CFUs).
To confirm the action of the antibiotic on E. coli viability, cells were collected from the surface of the resonators (Crystal A and Crystal B) and plated after serial dilution onto LB-agar plates for enumeration of colony-forming units (CFUs).

The test system is the same in experiment [3]. The experiment can be described thus: Phase noise of piezoelectric resonator with adhered microbes exposed to antibiotic. As to conditions: for time frame in which the resonator method detects antimicrobial action against live E. coli cells: preliminary experiments; for PSDs of the acoustic resonators when the antibiotic was introduced: spectral power 4 Hz to 20 Hz, FIG. 35, FIG. 36. On the procedure:
An acoustic article was prepared to detect microbial viability through measurements of phase noise of a resonator on which microbes were adhered. An acoustic article was prepared by combining a piezoelectric resonator (commercially available from Biolin Scientific, model Q-Sense) and custom fabricated components that interfaced to the piezoelectric resonator. The piezoelectric resonator included an electrical contact to a piezoelectric crystal. […] One side of the piezoelectric crystal faced a fluid chamber and was coated with a thin layer of poly-L-lysine (PLL) to promote adhesion of microbes to the surface. The piezoelectric resonator was disposed on an aluminum platform that incorporated electrical lines to the resonator, and the platform was placed on a thermally controlled platform held at a constant temperature of approximately 37° C. Phosphate-buffered saline (PBS) was introduced to the fluid chamber, and electronics configured according to FIG. 30 and FIG. 31 were used to determine the resonant frequency of the resonator by varying the output frequency from frequency source 200 while monitoring the amplitude of the RF output from amplifier 222. The output frequency of the CW voltage from the frequency source was then set to this measured resonant frequency. Subsequently, averaged power spectral densities of phase noise from the resonator were determined from the measured time-varying voltage from phase-noise detector 106 passed to vector signal analyzer 206, through the use of a calibration of phase-noise detector 106. Following acquisition of this background spectrum, Escherichia coli (E. coli) cells were suspended in PBS and flowed through the fluid chamber over the crystal for five minutes. The chamber was then drained of fluid and refilled with Luria-Bertani (LB) broth to provide nutrients for bacterial growth. E. coli adhered to the crystal surface during this sequence, and unattached cells were washed away.
Power spectral densities (PSDs) were repeatedly acquired over a period beginning 30 minutes before ampicillin in LB was introduced to the crystal and ending 68 minutes after this introduction of ampicillin. Before the acquisition of each averaged spectrum, the output of frequency source 200 was retuned to the current frequency of the resonator while monitoring the output of amplifier 222. […] The background PSD in PBS has been subtracted from these spectra.
To provide a scalar quantity reflective of the measured PSDs, the spectra in FIG. 33 and similar spectra at other times during the experiment were integrated over the frequency range from 3 Hz to 20 Hz. This quantity, which is the total spectral power over this frequency range, is plotted in FIG. 34 as a function of time.
Simultaneous control measurements of PSDs were also acquired on a second piezoelectric crystal with the same sequence of introduction of fluids, except that the effector fluid contained no ampicillin. With this control crystal, PSDs increased continuously during the entire experiment.
The acoustic article, electronic circuitry, data acquisition procedures, and fluid-analyte processing steps described in Example 1 were used to probe the effect of an antibiotic, polymyxin B, on phase noise generated by E. coli Here, two identical resonators (“Crystal A” and “Crystal B”) were used in which Crystal B was not exposed to polymyxin B until more than 40 minutes after introduction of polymyxin B to Crystal A.
Measurements of PSDs of the first resonator (Crystal A) before and after exposure of E. coli to polymyxin B are shown in FIG. 35. […] Data from second resonator Crystal B with E. coli not exposed to polymyxin B during 0-40 minutes are shown in FIG. 36 and labelled as “Crystal B,” wherein data labelled as “Crystal A” are data taken in presence of polymyxin B during 0-40 minutes and later.

Regarding polymyxin B, in experiment [1], the “disintegration of E. coli cells” value is “does not induce a disintegration”. Moreover, the “CFUs recovered from treated resonators” value in experiment [2] (FIG. 37) is “no CFUs were recovered”. In addition, the “number of CFUs relative to a parallel sample not exposed to antibiotic” value in experiment [2] is reported as “greater than several log decrease”. Moreover, in experiment [3], the “time frame in which the resonator method detects antimicrobial action against live E. coli cells” value is given as “within a one-hour time frame” and the “PSDs of the acoustic resonators when the antibiotic was introduced” value was “dropped dramatically”.

In the case of `CC1(C)S[C@@H]2[C@H](NC(=O)[C@H](N)c3ccccc3)C(=O)N2[C@H]1C(=O)O` [ampicillin], the “cell density after introduction of antibiotic” value in experiment [1] (period beginning 30 min after introduction of ampicillin, FIG. 34) is “dropped as a result of lysing and disintegration of cells”. Besides, the “number of CFUs relative to a parallel sample not exposed to antibiotic” value in experiment [2] is “several log decrease”. Besides, the “spectral power of phase noise soon after introduction of antibiotic” value in experiment [3] (PSD integrated 3 Hz to 20 Hz, E. coli on PLL-coated crystal in LB, approx. 37° C., FIG. 34) is reported as “essentially leveled off”. Also, the “time after introduction of antibiotic at which spectral power began dropping towards the background level” value in experiment [3] (PSD integrated 3 Hz to 20 Hz, FIG. 34) is “approximately 30 minutes”. In experiment [3], the “time frame in which the resonator method detects antimicrobial action against live E. coli cells” value was “within a one-hour time frame” and the “PSDs of the acoustic resonators when the antibiotic was introduced” value was “dropped dramatically”.
